Reference: PubChem BioAssay (NCI)
Several values for one entry are separate records, joined by “and”; a condition that tells them apart may be missing. Equal entries are not always repeated.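 Cells were grown in 96-well plates and exposed to each compound for 48 hours at five concentrations; endpoints were interpolated linearly between bracketing concentrations, or set to the highest concentration if not reached. At the GI50, growth is halved. At the TGI there is no net growth.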

Legend:
Test in all cases: inhibition of tumour cell growth, NCI panel, 48 h
ACHN renal = system: ACHN renal
SF-268 CNS = system: SF-268 CNS
NCI/ADR-RES ovarian = system: NCI/ADR-RES ovarian
A498 renal = system: A498 renal
SR leukemia = system: SR leukemia
SK-MEL-28 melanoma = system: SK-MEL-28 melanoma
786-0 renal = system: 786-0 renal
OVCAR-4 ovarian = system: OVCAR-4 ovarian
NCI-H226 lung = system: NCI-H226 lung
UACC-257 melanoma = system: UACC-257 melanoma
HT29 colon = system: HT29 colon
SF-295 CNS = system: SF-295 CNS
MCF7 breast = system: MCF7 breast
NCI-H460 lung = system: NCI-H460 lung
DU-145 prostate = system: DU-145 prostate
RPMI-8226 leukemia = system: RPMI-8226 leukemia
SNB-19 CNS = system: SNB-19 CNS
SK-OV-3 ovarian = system: SK-OV-3 ovarian
HOP-92 NSCLC = system: HOP-92 NSCLC
A549 NSCLC = system: A549 NSCLC
RXF 393 renal = system: RXF 393 renal
SK-MEL-5 melanoma = system: SK-MEL-5 melanoma
UO-31 renal = system: UO-31 renal
T-47D breast = system: T-47D breast
SF-539 CNS = system: SF-539 CNS
HCT-116 colon = system: HCT-116 colon
SNB-75 CNS = system: SNB-75 CNS
OVCAR-3 ovarian = system: OVCAR-3 ovarian
UACC-62 melanoma = system: UACC-62 melanoma
IGROV1 ovarian = system: IGROV1 ovarian
HOP-62 NSCLC = system: HOP-62 NSCLC
MOLT-4 leukemia = system: MOLT-4 leukemia
COLO 205 colon = system: COLO 205 colon
MDA-N = system: MDA-N
HL-60(TB) leukemia = system: HL-60(TB) leukemia
NCI-H522 lung = system: NCI-H522 lung
U251 CNS = system: U251 CNS
OVCAR-8 ovarian = system: OVCAR-8 ovarian
HCT-15 colon = system: HCT-15 colon
TK-10 renal = system: TK-10 renal
BT-549 breast = system: BT-549 breast
PC-3 prostate = system: PC-3 prostate
LOX IMVI melanoma = system: LOX IMVI melanoma
HCC-2998 colon = system: HCC-2998 colon
CCRF-CEM leukemia = system: CCRF-CEM leukemia
MDA-MB-231 breast = system: MDA-MB-231 breast
MALME-3M melanoma = system: MALME-3M melanoma
SW-620 colon = system: SW-620 colon
HS 578T breast = system: HS 578T breast
OVCAR-5 ovarian = system: OVCAR-5 ovarian
KM12 colon = system: KM12 colon
MDA-MB-435 = system: MDA-MB-435
M14 melanoma = system: M14 melanoma
K-562 leukemia = system: K-562 leukemia
EKVX NSCLC = system: EKVX NSCLC
CAKI-1 renal = system: CAKI-1 renal
NCI-H23 lung = system: NCI-H23 lung
SN12C renal = system: SN12C renal
SK-MEL-2 melanoma = system: SK-MEL-2 melanoma

C[C@H](CCC(=O)O)[C@H]1CC[C@H]2[C@@H]3CC[C@@H]4C[C@H](O)CC[C@]4(C)[C@H]3CC[C@]12C
GI50 (ACHN renal): > 100 µM and 37.8 µM
TGI (ACHN renal): > 100 µM
GI50 (SF-268 CNS): > 100 µM and 36 µM
TGI (SF-268 CNS): > 100 µM
GI50 (NCI/ADR-RES ovarian): > 100 µM and 29.3 µM
TGI (NCI/ADR-RES ovarian): > 100 µM and 82.4 µM
TGI (A498 renal): > 100 µM
GI50 (SR leukemia): > 100 µM and 14.6 µM
TGI (SR leukemia): > 100 µM and 32.8 µM
GI50 (SK-MEL-28 melanoma): > 100 µM and 27 µM
TGI (SK-MEL-28 melanoma): > 100 µM and 85.3 µM
GI50 (786-0 renal): > 100 µM and 31.8 µM
TGI (786-0 renal): > 100 µM
GI50 (OVCAR-4 ovarian): > 100 µM and 32 µM
TGI (OVCAR-4 ovarian): > 100 µM and 84.5 µM
GI50 (NCI-H226 lung): > 100 µM and 37 µM
TGI (NCI-H226 lung): > 100 µM
GI50 (UACC-257 melanoma): > 100 µM and 28.3 µM
TGI (UACC-257 melanoma): > 100 µM and 67.6 µM
GI50 (HT29 colon): > 100 µM and 21.6 µM
TGI (HT29 colon): > 100 µM and 57.7 µM
GI50 (SF-295 CNS): > 100 µM and 37.2 µM
TGI (SF-295 CNS): > 100 µM
GI50 (MCF7 breast): > 100 µM and 36.5 µM
TGI (MCF7 breast): > 100 µM
GI50 (NCI-H460 lung): > 100 µM and 18.2 µM
TGI (NCI-H460 lung): > 100 µM and 32.3 µM
GI50 (DU-145 prostate): 86.7 µM and 30 µM
TGI (DU-145 prostate): > 100 µM and 87.7 µM
GI50 (RPMI-8226 leukemia): > 100 µM and 22.9 µM
TGI (RPMI-8226 leukemia): > 100 µM and 52.7 µM
GI50 (SNB-19 CNS): > 100 µM and 24.3 µM
TGI (SNB-19 CNS): > 100 µM and 90.7 µM
GI50 (SK-OV-3 ovarian): > 100 µM and 40.3 µM
TGI (SK-OV-3 ovarian): > 100 µM
GI50 (HOP-92 NSCLC): > 100 µM and 34.1 µM
TGI (HOP-92 NSCLC): > 100 µM and 99.2 µM
GI50 (A549 NSCLC): > 100 µM and 18.4 µM
TGI (A549 NSCLC): > 100 µM and 46.2 µM
GI50 (RXF 393 renal): > 100 µM and 26 µM
TGI (RXF 393 renal): > 100 µM and 62.4 µM
GI50 (SK-MEL-5 melanoma): > 100 µM and 18.3 µM
TGI (SK-MEL-5 melanoma): > 100 µM and 35.3 µM
GI50 (UO-31 renal): > 100 µM and 14.3 µM
TGI (UO-31 renal): > 100 µM and 27.3 µM
GI50 (T-47D breast): > 100 µM and 19.9 µM
TGI (T-47D breast): > 100 µM and 46.1 µM
GI50 (SF-539 CNS): > 100 µM and 27.6 µM
TGI (SF-539 CNS): > 100 µM and 61 µM
GI50 (HCT-116 colon): > 100 µM and 18.4 µM
TGI (HCT-116 colon): > 100 µM and 33.2 µM
GI50 (SNB-75 CNS): 44.6 µM and 24.6 µM
TGI (SNB-75 CNS): > 100 µM and 59.4 µM
GI50 (OVCAR-3 ovarian): > 100 µM and 19 µM
TGI (OVCAR-3 ovarian): > 100 µM and 33.3 µM
GI50 (UACC-62 melanoma): > 100 µM and 35.3 µM
TGI (UACC-62 melanoma): > 100 µM
GI50 (IGROV1 ovarian): > 100 µM and 40 µM
TGI (IGROV1 ovarian): > 100 µM
GI50 (HOP-62 NSCLC): > 100 µM and 28.2 µM
TGI (HOP-62 NSCLC): > 100 µM and 73.8 µM
GI50 (MOLT-4 leukemia): > 100 µM and 21.5 µM
TGI (MOLT-4 leukemia): > 100 µM and 52.3 µM
GI50 (COLO 205 colon): > 100 µM and 25.5 µM
TGI (COLO 205 colon): > 100 µM and 54.6 µM
GI50 (MDA-N): > 100 µM and 19.9 µM
TGI (MDA-N): > 100 µM and 46.3 µM
GI50 (HL-60(TB) leukemia): > 100 µM and 15.1 µM
TGI (HL-60(TB) leukemia): > 100 µM and 32.8 µM
GI50 (NCI-H522 lung): > 100 µM and 25.5 µM
TGI (NCI-H522 lung): > 100 µM and 54.5 µM
GI50 (U251 CNS): > 100 µM and 21.3 µM
TGI (U251 CNS): > 100 µM and 43.7 µM
GI50 (OVCAR-8 ovarian): > 100 µM and 41.3 µM
TGI (OVCAR-8 ovarian): > 100 µM
GI50 (HCT-15 colon): > 100 µM and 23.5 µM
TGI (HCT-15 colon): > 100 µM and 62.3 µM
GI50 (TK-10 renal): > 100 µM and 33.6 µM
TGI (TK-10 renal): > 100 µM and 83.3 µM
GI50 (BT-549 breast): > 100 µM and 28.4 µM
TGI (BT-549 breast): > 100 µM and 74.7 µM
GI50 (PC-3 prostate): > 100 µM and 23.9 µM
TGI (PC-3 prostate): > 100 µM and 57.6 µM
GI50 (LOX IMVI melanoma): > 100 µM and 28.9 µM
TGI (LOX IMVI melanoma): > 100 µM and 80.3 µM
GI50 (HCC-2998 colon): > 100 µM and 19.8 µM
TGI (HCC-2998 colon): > 100 µM and 40.2 µM
GI50 (CCRF-CEM leukemia): > 100 µM
TGI (CCRF-CEM leukemia): > 100 µM
GI50 (MDA-MB-231 breast): > 100 µM and 28.3 µM
TGI (MDA-MB-231 breast): > 100 µM and 73.2 µM
GI50 (MALME-3M melanoma): > 100 µM and 40.2 µM
TGI (MALME-3M melanoma): > 100 µM and 74.1 µM
GI50 (SW-620 colon): > 100 µM and 27 µM
TGI (SW-620 colon): > 100 µM and 78.7 µM
GI50 (HS 578T breast): > 100 µM and 33.3 µM
TGI (HS 578T breast): > 100 µM and 65.8 µM
GI50 (OVCAR-5 ovarian): > 100 µM and 20.7 µM
TGI (OVCAR-5 ovarian): > 100 µM and 60.3 µM
GI50 (KM12 colon): > 100 µM and 24.4 µM
TGI (KM12 colon): > 100 µM and 67.2 µM
GI50 (MDA-MB-435): > 100 µM and 22.6 µM
TGI (MDA-MB-435): > 100 µM and 50.8 µM
GI50 (M14 melanoma): > 100 µM and 17.3 µM
TGI (M14 melanoma): > 100 µM and 42 µM
GI50 (K-562 leukemia): > 100 µM and 17.4 µM
TGI (K-562 leukemia): > 100 µM and 43.8 µM
GI50 (EKVX NSCLC): > 100 µM and 20 µM
TGI (EKVX NSCLC): > 100 µM and 69 µM
GI50 (CAKI-1 renal): > 100 µM and 22.2 µM
TGI (CAKI-1 renal): > 100 µM and 47.1 µM
GI50 (NCI-H23 lung): > 100 µM and 17.9 µM
TGI (NCI-H23 lung): > 100 µM and 33.7 µM
GI50 (SN12C renal): > 100 µM and 20.8 µM
TGI (SN12C renal): > 100 µM and 56.1 µM
GI50 (SK-MEL-2 melanoma): > 100 µM and 21.5 µM
TGI (SK-MEL-2 melanoma): > 100 µM and 45.6 µM
